For one test, the target named is T1, HepR (Xanthomonas campestris, UniProt Q8P3A9).
T1 construct: gene slyA; 147-amino acid protein, His-tagged HepR (pET28a), dimer
Nature of the test: ITC with purified His-HepR (Kd […]); confirmed by SPR (Kd […]); SA inhibits HepR–Phep binding in EMSA. (Mobility shift assays separate free from complexed probe on a gel.)

Test [1] deals with HepR (MarR family transcription factor, Xcc4167) (Xanthomonas campestris pv. campestris (strain XC1)). Nature of the test: SEC; FPLC gel filtration of Ni-NTA purified His-tagged HepR on Superdex 75; 25 mM HEPES, 150 mM NaCl, pH 7.4. (In general: SEC sorts molecules by how far they enter the pores of the column.)

In general, Kd refers to the free concentration of one partner at which half of the binding sites on the other are occupied at equilibrium, for simple one-to-one binding. Lower therefore signals higher affinity. At HepR, `O=C(O)c1ccccc1O` [SA, Salicylic acid] came in with a Kd of 19.3 µM. What is called stoichiometry N is a count of units in the complex or per binding partner. Compound “HepR (MarR family transcription factor, Xcc4167) (natural protein)” had a stoichiometry N in test [1] of 2.

These data come from PMC11442134, “The phytopathogen Xanthomonas campestris senses and effluxes salicylic acid via a sensor HepR and an RND family efflux pump to promote virulence in host plants” (mLife, 2024).
